# Data taken from patent US8309766B2 (Obschestvo S. Organichennoi Otvetstvennostiyu …, priority 2005, dated 2012).
# Where two headings read alike, the source gives them in different places.
# How the values were obtained:
# cyclooxygenase = assay: In vitro effect on [14C]arachidonic acid metabolism in a cell-free homogenate of murine pulmonary tissue; type: biochemical, CBA mice; conditions: compound 10^−4 M, 37° C., 30 minutes
# Description: Studies of arachidonic acid metabolism was carried out on females CBA mice who where fed a standard vivarium fodder. Animals (mice) were sacrificed, lungs were extracted, homogenized in a glass homogenizer manufactured by the firm “Wheaton” (USA) at 4° C. in 10 volumes of 0.05 M Tris-HCl buffer. Aliquots (0.5 ml) of supernatant were incubated in 0.5 μCi [1-C^14]-arachidonic acid [C^14]-AA, “Amersham”, England; specific activity 50-60 μCi/mmole) at 37° C. for 30 minutes. Non-metabolized [αC^14]-AA and products of metabolism thereof were extracted in 20 volumes of chloroform and methanol mixture (1:1) in extraction efficacy not less than 90% assessed using [C^14]-PGF2α. [C^14]-AA and metabolites thereof were separated and identified using TLC (the plates Kieselgel 60 of the “Merck” firm, Germany) using as an organic phase, the system of solvents (ethylacetate, isooctane, acetic acid, water—110:50:20:100) and labeled standards. Densitometry of autoradiochromograms obtained on the X-ray film X-Omat AR (“Kodak”, USA) and HS 11 (“ORWO”, Germany), was performed on the densiscan KS 3 (“Kipp and Zonnen”, Holland). Quantitative analysis of individual eicosanoids was carried out using radiometry of fractions obtained by high-performance liquid chromatography (the HPLC-system of the “Gilson” form, France; the column ZORBAX C8 of the “Du Pont” firm, USA) and by elution of spots on TLC-plates. The tested compounds were administered at concentration 10^−4 M.
# "hot plate" test in mice = assay: Analgetic activity on the model "hot plate"; type: in vivo, white mongrel mice; conditions: 10 mg/kg; for response vs control in vivo at 10 mg/kg / change in vivo at 10 mg/kg: Mus musculus; for response vs control in vivo at 10 mg/kg / Latent time of NT (%): percent of background; for response vs control in vivo at 10 mg/kg: read-out: Latent time of NT (%); for change in vivo at 10 mg/kg: read-out: Analgesia (%)
# Description: The tests were conducted on males of white mongrel mice weighing 22-24 grams. The animals were individually placed on a hot plate (manufactured by the firm “Ugo Basile”), a temperature of which remained constant and was equal to 55° C. The following first manifestations of pain reaction were recorded: licking paws, jumping up prior to administration of a substance (background parameters) and 0.5, 1, 2, 3 and 4 hours post administration of a substance. Substances were administered […] (using a probe). A weighed amount of a substance was thoroughly mixed in 0.1 ml Tween 80 until a solution was obtained, then normal saline was added up to a volume of 0.5 ml. Average latent time of nociception threshold (NT) was calculated in every group. The results obtained were expressed in percent of the background values. Analgetic effect (in %) was calculated according to the formula: A−100%=X, wherein A is a background parameter; X is analgetic effect (in %)
# A is (time 0.5 to 4 hours post administration×100%): background time
# As reference drugs, Analgin (150 mg/kg), Paracetamol (200 mg/kg), Ketorol (10 mg/kg), were used.
# [1] = tested on: "acetic contortions" in mice; assay: Analgetic activity on the model "acetic contortions"; type: in vivo, white mongrel mice; conditions: dose 10 mg/kg (table title); for C ± m (the number of contortions for 15 minutes): 60 minutes prior to acetic acid
# Description: (§1) The tests were conducted on males of white mongrel mice weighing 22-24 grams. The specific pain response (“contortions”) were elicited by intraperitoneal administration to mice of 0.75% acetic acid solution. The following signs were taken into consideration: the number of seizure contractions of abdominal muscles accompanied by stretching the hind limbs and sagging the back. Analgetic effect was assessed by decrease in the number of contortions in animals in percent to the control for 15 minutes post administration of acetic acid. The technique of the tests is disclosed in Koster R., Anderson M., de Beer B.//Fed. Proc. 1959. V. 18. P. 412. Compounds under testing were administered intraperitoneally (using a probe) at a dose 10 μg/kg 60 minutes prior to injection of the acid. Diclofenac (10 mg/kg) was used as a reference drug. Analgetic effect was calculated according to the formula: […]
# wherein Ck is the number of contortions in the control group,
# Co is the number of contortions in the test group.
# mice, forced swimming = assay: "Behavioral despair" test according to Porsolt; type: in vivo; conditions: 50 mg/kg orally
# Description: The “behavioral despair” test according to Porsolt [R. D. Porsolt, A. Bertin and M. Jalfre.//in mice: A primary Screening Test for Antidepressants. Arch. Int. Pharmacodyn., 1977, 229, p. 327-336] is a predictive test for drugs with antidepressant action.
# Stress state in mice (weighing 27-30 grams) is induced by forced swimming. Animals are placed into a cylinder (height 25 cm, diameter 10 cm) filled to ⅓ with water at temperature 21-23° C. The animals cannot escape from the cylinder by themselves. Following a short time of activity the animals develop a so called “behavioral depression” characterized by hovering of animals, immobilization duration of which can be fixed. The experiment is carried out in two days. One a first day, animals are placed into the cylinder for 15 minutes (pre-test). After removal from water, the animals are dried and preparations under testing are administered. At 24 hours, the preparations are administered again and one hour later the animals are placed into the cylinder for 6 minutes. During first two minutes the animals are actively swimming; during the subsequent four minutes, behavioral depression develops manifested by immobilization (hovering) which is fixed for 4 minutes and is measure in seconds. Compound IX and the reference antidepressant drug Fluoxetin were administered orally at a dose 50 mg/kg.
# [2] = tested on: "acetic contortions" in mice; assay: Effect on analgetic action of Tramal and Analgin on the model "acetic contortions"; type: in vivo, white mongrel mice; conditions: IX 10 mg/kg, Tramal 10 mg/kg, alone or combined
# Description: as §1
# The studies were carried out in accordance with the technique presented in Example 18.
# [3] = 120 minutes post administration
Compound,"latent time of nociception threshold, M ± m (""hot plate"" test in mice; 30 minutes post administration) [s]","latent time of nociception threshold, M ± m (""hot plate"" test in mice; 60 minutes post administration) [s]","latent time of nociception threshold, M ± m (""hot plate"" test in mice; [3]) [s]","response vs control in vivo at 10 mg/kg (""hot plate"" test in mice; 0.5 h, 30 minutes) [%]","change in vivo at 10 mg/kg (""hot plate"" test in mice; 0.5 h, 30 minutes) [%]","response vs control in vivo at 10 mg/kg (""hot plate"" test in mice; 1 h, 60 minutes) [%]","change in vivo at 10 mg/kg (""hot plate"" test in mice; 1 h, 60 minutes) [%]","response vs control in vivo at 10 mg/kg (""hot plate"" test in mice; 2 h, 120 minutes) [%]","change in vivo at 10 mg/kg (""hot plate"" test in mice; 2 h, 120 minutes) [%]",C ± m (the number of contortions for 15 minutes) [1],other results
"O=C(CCc1ccc(O)cc1)N[C@@H](Cc1ccc(O)cc1)C(=O)O [Compound XIV, 3-(p-hydroxyphenyl)-propionyltyrosine]",5.59 ± 1.12,4.7 ± 0.51,7.3 ± 1.09,150,50.3,126,26.3,196,96.2,–,"Prostanoids (cyclooxygenase; b308 reads these as % cyclooxygenase inhibition): −35; 6-keto-PGF1α (cyclooxygenase; change): −24; AA (arachidonic acid) (cyclooxygenase; change): +84; PGE2 (cyclooxygenase; change): −54; PGF2α (cyclooxygenase; change): −24; TXB2 (cyclooxygenase; change): −49; latent time of nociception threshold, M ± m (""hot plate"" test in mice; 240 minutes post administration): 6.78 ± 0.504 s; response vs control in vivo at 10 mg/kg (""hot plate"" test in mice; 4 h, 240 minutes): 182%; change in vivo at 10 mg/kg (""hot plate"" test in mice; 4 h, 240 minutes): 82.3%"
"CC(=O)N[C@@H](Cc1ccc(O)cc1)C(=O)NCCc1ccccc1 [Compound XXVIII, acetyltyrosylphenylethylamine]",9.2 ± 1.8,8.1 ± 1.0,11.6 ± 2.5,192,91.7,169,68.8,242,142,15.9 ± 2.4,"inhibition in vivo at 10 mg/kg ([1]; Mus musculus, ip, 0.25 h, read-out: Analgetic effect (%)): 42.1%; response vs control in vivo at 10 mg/kg ([1]; Mus musculus, ip, 0.25 h, read-out: C, % to the control): 57.9%"
"O=C(CCc1ccccc1)N[C@@H](Cc1ccc(O)cc1)C(=O)OCc1ccccc1 [Compound XXX, 3-phenylproponyltyrosine benzyl ester]",6.9 ± 0.8,9.0 ± 0.9,9.1 ± 1.4,–,–,–,–,–,–,11.9 ± 1.7,"Analgetic effect, % [1]: 36.1%; C, % to the control [1]: 63.9%; Analgesia (%) (""hot plate"" test in mice; 30 minutes): 68.3%; Latent time of NT (%) (""hot plate"" test in mice; 30 minutes): 168.3%; Analgesia (%) (""hot plate"" test in mice; 60 minutes): 113.8%; Latent time of NT (%) (""hot plate"" test in mice; 60 minutes): 213.8%; Analgesia (%) (""hot plate"" test in mice; 120 minutes): 121.9%; Latent time of NT (%) (""hot plate"" test in mice; 120 minutes): 221.9%"
"CNCCC(Oc1ccc(C(F)(F)F)cc1)c1ccccc1 (centres unmarked) [Fluoxetin, reference compound]",–,–,–,–,–,–,–,–,–,–,"% change from the control (mice, forced swimming): −33%"
"COc1cccc(C2(O)CCCCC2CN(C)C)c1 (centres unmarked) [Tramal, reference compound]",–,–,–,–,–,–,–,–,–,–,"Analgetic effect, % [2]: 53%"
